We go through 27 compounds from patent publication US7141592B2, “Substituted oxadiazolidinediones” (Wyeth, priority 2003, dated 2006).

This test deals with T1, recombinant human plasminogen activator inhibitor-1 (PAI-1) (Homo sapiens, UniProt P05121).
T1 construct: purchased Molecular Innovations, Royal Oak, Mich
Description: Primary screen for the PAI-1 inhibition (chromogenic tPA activity, Spectrozyme-tPA). Type of test: biochemical. Particulars: compound at 100 μM. The procedure: Test compounds are dissolved in DMSO at a final concentration of 10 mM, then diluted 100× in physiologic buffer. The inhibitory assay is initiated by the addition of the substituted oxadiazolidinedione (1–100 μM final concentration, maximun DMSO concentration of 0.2%) in a pH 6.6 buffer containing 140 nM recombinant human plasminogen activator inhibitor-1 (PAI-1; Molecular Innovations, Royal Oak, Mich.). Following a 1 hour incubation at room temperature, 70 nM of recombinant human tissue plasminogen activator (tPA) is added, and the combination of the substituted oxadiazolidinedione, PAI-1 and tPA is incubated for an additional 30 minutes. Following the second incubation, Spectrozyme-tPA (American Diagnostica, Greenwich, Conn.), a chromogenic substrate for tPA, is added and absorbance read at 405 nm at 0 and 60 minutes. Relative PAI-1 inhibition is equal to the residual tPA activity in the presence of the test compound and PAI-1. Control treatments include the complete inhibition of tPA by PAI-1 at the molar ratio employed (2:1), and the absence of any effect of the substituted oxadiazolidinedione on tPA alone.

T1 sequence (P05121 24-402): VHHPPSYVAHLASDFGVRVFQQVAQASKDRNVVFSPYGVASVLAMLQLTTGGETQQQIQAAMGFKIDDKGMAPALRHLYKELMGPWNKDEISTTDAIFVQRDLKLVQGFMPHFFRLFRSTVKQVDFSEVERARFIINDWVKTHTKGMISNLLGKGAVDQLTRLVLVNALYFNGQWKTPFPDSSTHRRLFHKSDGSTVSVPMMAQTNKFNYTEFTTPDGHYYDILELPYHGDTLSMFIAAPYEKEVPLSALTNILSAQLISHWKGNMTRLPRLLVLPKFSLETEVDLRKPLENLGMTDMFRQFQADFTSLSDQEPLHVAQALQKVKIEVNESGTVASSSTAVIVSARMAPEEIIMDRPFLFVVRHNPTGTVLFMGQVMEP

As to `C=CCn1cc(Cn2oc(=O)[nH]c2=O)c2cc(OCc3cccc(C(F)(F)F)c3)ccc21` [Compound 29, 2-[(1-allyl-5-{[3-(trifluoromethyl)benzyl]oxy}-1H-indol-3-yl)methyl]-1,2,4-oxadiazolidine-3,5-dione], the inhibition (in general, the drop in the measured response relative to a control, in per cent) at 100 µM came out at 79%.
In the case of `C=CCn1cc(Cn2oc(=O)[nH]c2=O)c2cc(OCc3ccccc3Cl)ccc21` [Compound 33, 2-({1-allyl-5-[(2-chlorobenzyl)oxy]-1H-indol-3-yl}methyl)-1,2,4-oxadiazolidine-3,5-dione], the inhibition at 100 µM is 91%.
As for `C=CCn1cc(Cn2oc(=O)[nH]c2=O)c2cc(OCc3ccc(Cl)c(Cl)c3)ccc21` [Compound 34, 2-({1-allyl-5-[(3,4-dichlorobenzyl)oxy]-1H-indol-3-yl}methyl)-1,2,4-oxadiazolidine-3,5-dione], the inhibition at 100 µM stood at 87%.
As to `O=c1[nH]c(=O)n(Cc2cccc(-c3cccc(OCc4ccccc4Cl)c3)c2)o1` [Compound 36, 2-({3′-[(2-chlorobenzyl)oxy]-1,1′-biphenyl-3-yl}methyl)-1,2,4-oxadiazolidine-3,5-dione], the inhibition at 100 µM amounted to 100%.
Regarding `O=c1[nH]c(=O)n(Cc2cccc(-c3cccc(OCc4cc(C(F)(F)F)cc(C(F)(F)F)c4)c3)c2)o1` [Compound 38, 2-[(3′-{[3,5-bis(trifluoromethyl)benzyl]oxy}-1,1′-biphenyl-3-yl)methyl]-1,2,4-oxadiazolidine-3,5-dione], the inhibition at 100 µM is 69%.
Turning to `O=c1[nH]c(=O)n(Cc2cccc(-c3cccc(OCc4cccc(Cl)c4)c3)c2)o1` [Compound 39, 2-({3′-[(3-chlorobenzyl)oxy]-1,1′-biphenyl-3-yl}methyl)-1,2,4-oxadiazolidine-3,5-dione], the inhibition at 100 µM came out at 99%.
As to `O=c1[nH]c(=O)n(Cc2cccc(-c3cccc(OCc4ccccc4)c3)c2)o1` [Compound 40, 2-{[3′-(benzyloxy)-1,1′-biphenyl-3-yl]methyl}-1,2,4-oxadiazolidine-3,5-dione], the inhibition at 100 µM stood at 96%.
`O=c1[nH]c(=O)n(Cc2cccc(-c3cccc(OCc4ccc(Cl)cc4)c3)c2)o1` [Compound 42, 2-({3′-[(4-chlorobenzyl)oxy]-1,1′-biphenyl-3-yl}methyl)-1,2,4-oxadiazolidine-3,5-dione]: the inhibition at 100 µM was 100%.
As for `O=c1[nH]c(=O)n(Cc2cccc(-c3cccc(OCc4ccc(Cl)c(Cl)c4)c3)c2)o1` [Compound 43, 2-({3′-[(3,4-dichlorobenzyl)oxy]-1,1′-biphenyl-3-yl}methyl)-1,2,4-oxadiazolidine-3,5-dione], the inhibition at 100 µM came to 100%.
For `O=c1[nH]c(=O)n(Cc2cccc(-c3cccc(OCc4ccc5ccccc5c4)c3)c2)o1` [Compound 44, 2-{[3′-(2-naphthylmethoxy)-1,1′-biphenyl-3-yl]methyl}-1,2,4-oxadiazolidine-3,5-dione], the inhibition at 100 µM was determined as 28%.
In the case of `Cc1ccc(COc2cccc(-c3cccc(Cn4oc(=O)[nH]c4=O)c3)c2)cc1` [Compound 45, 2-({3′-[(4-methylbenzyl)oxy]-1,1′-biphenyl-3-yl}methyl)-1,2,4-oxadiazolidine-3,5-dione] it was 94%; in that of `Cc1cccc(COc2cccc(-c3cccc(Cn4oc(=O)[nH]c4=O)c3)c2)c1` [Compound 46, 2-({3′-[(3-methylbenzyl)oxy]-1,1′-biphenyl-3-yl}methyl)-1,2,4-oxadiazolidine-3,5-dione], 80%.
In the case of `O=c1[nH]c(=O)n(Cc2cccc(-c3cccc(OCc4c(Cl)cccc4Cl)c3)c2)o1` [Compound 47, 2-({3′-[(2,6-dichlorobenzyl)oxy]-1,1′-biphenyl-3-yl}methyl)-1,2,4-oxadiazolidine-3,5-dione], the inhibition at 100 µM worked out at 88%.
In the case of `CC(C)(C)c1ccc(COc2cccc(-c3ccc(Cn4oc(=O)[nH]c4=O)cc3)c2)cc1` [Compound 53, 2-({3′-[(4-tert-butylbenzyl)oxy]-1,1′-biphenyl-4-yl}methyl)-1,2,4-oxadiazolidine-3,5-dione] it was 60%; in that of `O=c1[nH]c(=O)n(Cc2ccc(-c3cccc(OCc4ccc(Br)cc4)c3)cc2)o1` [Compound 54, 2-({3′-[(4-bromobenzyl)oxy]-1,1′-biphenyl-4-yl}methyl)-1,2,4-oxadiazolidine-3,5-dione], 10%.
`O=c1[nH]c(=O)n(Cc2ccc(-c3ccc(OCc4cccc(Br)c4)cc3)cc2)o1` [Compound 55, 2-({4′-[(3-bromobenzyl)oxy]-1,1′-biphenyl-4-yl}methyl)-1,2,4-oxadiazolidine-3,5-dione]: the inhibition at 100 µM was found to be 41%.
In the case of `O=c1[nH]c(=O)n(Cc2ccc(C#Cc3ccccc3)cc2)o1` [Compound 56, 2-[4-(phenylethynyl)benzyl]-1,2,4-oxadiazolidine-3,5-dione] it was 65%; in that of `CCCCC#Cc1ccc(Cn2oc(=O)[nH]c2=O)cc1` [Compound 57, 2-(4-hex-1-ynylbenzyl)-1,2,4-oxadiazolidine-3,5-dione], 56%; in that of `O=c1[nH]c(=O)n(Cc2cccc(C#Cc3ccccc3)c2)o1` [Compound 60, 2-[3-(phenylethynyl)benzyl]-1,2,4-oxadiazolidine-3,5-dione], 38%.
In the case of `O=c1[nH]c(=O)n(Cc2ccc(C#CCOc3cc(C(F)(F)F)cc(C(F)(F)F)c3)cc2)o1` [Compound 61, 2-(4-{3-[3,5-bis(trifluoromethyl)phenoxy]prop-1-ynyl}benzyl)-1,2,4-oxadiazolidine-3,5-dione] it was 87%; in that of `O=c1[nH]c(=O)n(Cc2ccc(C#CCOc3cc(Cl)cc(Cl)c3)cc2)o1` [Compound 62, 2-{4-[3-(3,5-dichlorophenoxy)prop-1-ynyl]benzyl}-1,2,4-oxadiazolidine-3,5-dione], 82%.
The figure for `O=c1[nH]c(=O)n(Cc2ccc(C#CCOc3cccc(Cl)c3)cc2)o1` [Compound 63, 2-{4-[3-(3-chlorophenoxy)prop-1-ynyl]benzyl}-1,2,4-oxadiazolidine-3,5-dione] is 85%; for `CC(C)(C)c1ccc(OCC#Cc2cccc(Cn3oc(=O)[nH]c3=O)c2)cc1` [Compound 65, 2-{3-[3-(4-tert-butylphenoxy)prop-1-ynyl]benzyl}-1,2,4-oxadiazolidine-3,5-dione] it is 77%.
On to `O=c1[nH]c(=O)n(Cc2cccc(C#CCOc3ccc(Br)cc3)c2)o1` [Compound 66, 2-{3-[3-(4-bromophenoxy)prop-1-ynyl]benzyl}-1,2,4-oxadiazolidine-3,5-dione], for which the inhibition at 100 µM is 85%.
Turning to `O=c1[nH]c(=O)n(Cc2cccc(C#CCOc3cc(C(F)(F)F)cc(C(F)(F)F)c3)c2)o1` [Compound 67, 2-(3-{3-[3,5-bis(trifluoromethyl)phenoxy]prop-1-ynyl}benzyl)-1,2,4-oxadiazolidine-3,5-dione], the inhibition at 100 µM amounted to 84%.
For `O=c1[nH]c(=O)n(Cc2cccc(C#CCOc3cc(Cl)cc(Cl)c3)c2)o1` [Compound 68, 2-{3-[3-(3,5-dichlorophenoxy)prop-1-ynyl]benzyl}-1,2,4-oxadiazolidine-3,5-dione], the inhibition at 100 µM was found to be 93%.
Regarding `O=c1[nH]c(=O)n(Cc2cccc(C#CCOc3cccc(Cl)c3)c2)o1` [Compound 69, 2-{3-[3-(3-chlorophenoxy)prop-1-ynyl]benzyl}-1,2,4-oxadiazolidine-3,5-dione], the inhibition at 100 µM stood at 85%.
